The values that follow come from PMC11091888, “Evaluation of Fusobacterium nucleatum Enoyl-ACP Reductase (FabK) as a Narrow-Spectrum Drug Target” (ACS Infectious Diseases, 2024).

Converted amounts (≈) assume the structure as drawn.

The subject of assay [1] is C. difficile infection (CDI). Conditions: cited from earlier work.
A further assay concerns E. faecalis FA2–2. Nature of the assay: MIC against wild-type E. faecalis FA2-2 (FabI and FabK). Format: cell-based, Enterococcus faecalis. Conditions: Enterococcus faecalis, E. faecalis FA2-2, possesses both FabI and FabK; read-out: MIC Ef wild-type. As to the method:
(§1) Compounds were twofold serially diluted (100–0.2 μg/mL) across a 96-well plate in 100 μL of media used for the specific organism (Table S4). For anaerobes, plates were incubated anaerobically at 37 °C for 1 h and then inoculated with approximately 10^5 to 10^6 CFU/well. Plates were incubated at 37 °C for up to 48 h, and MICs were read by visual inspection.

For the next assay, the system named is E. faecalis FA2–2ΔfabI. Nature of the assay: MIC against E. faecalis FA2-2 fabK+ (ΔfabI, possesses only FabK). Particulars: Enterococcus faecalis, read-out: MIC Ef fabK+, E. faecalis FA2-2 ΔfabI, possesses only FabK. Format: cell-based, Enterococcus faecalis. As for the experimental part:
as §1

Another assay deals with F. nucleatum 23726. Nature of the assay: MIC against F. nucleatum 23726. Conditions: three biological replicates. The assay is classed as cell-based, Fusobacterium nucleatum. As to the method:
as §1

With `O=C(NCc1nc(-c2ccc(Br)cc2)c[nH]1)Nc1ncc(Sc2ccccn2)s1` [Compound 296, 1-[4-(4-bromophenyl)-1H-imidazole-2-yl]methyl-3-[5-(pyridin-2-ylthio)thiazol-2-yl]urea], the “Efficacy in treating C. difficile infection (CDI) in mice” value in assay [1] is listed as “efficacious”. For the same compound, the MIC – broadly, the lowest concentration found to suppress growth – was 100 µg/mL (≈ 205 µM) in the assay on E. faecalis FA2–2; under 0.1 µg/mL in the assay on E. faecalis FA2–2ΔfabI; over 100 µg/mL with F. nucleatum 23726 (Fusobacterium nucleatum, 23726, F. nucleatum 23726 wild-type, read-out: MIC Fn 23726). Also, the “MIC Fn 23726” value against F. nucleatum 23726 (F. nucleatum 23726 wild-type) came to 100 µg/mL (≈ 205 µM).
